Source: patent US8354419B2, “Benzimidazole analogues for the treatment or prevention of flavivirus infections” (Vertex Pharmaceuticals Incorporated, priority 2009, dated 2013)

tested on: HCV (Ib) RNA replication; experiment: Cell-based luciferase reporter HCV (1b) RNA replication assay (replicon cell lines Huh-7 5.2 and ET); design: species or system Hepatitis C virus; conditions: Hepatitis C virus, Huh-7, 96 h, HCV 1b genotype replicon, luciferase readout, 4 days incubation; read-out: EC50_1b
Method in brief: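 Compounds were tested at eleven concentrations in duplicate over 4 days at 37 °C, 5% CO2. The cells were luciferase-reporter HCV 1b replicon lines 5.2 (NS5A adaptive mutation) or ET (NS4B mutation). Luminescence of lysates was measured, and IC50s were derived by nonlinear curve fitting.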

Structure (SMILES) | EC50
COC(=O)N(C)[C@H](C(=O)N1C[C@@H](C)C[C@H]1c1nc2cc(-c3ccc(-c4ccc5[nH]c([C@@H]6C[C@H](C)CN6C(=O)[C@H](C(C)C)N(C)C(=O)OC)nc5c4)c(C)c3)ccc2[nH]1)C(C)C [Compound 266] | ≤ 5 nM
COC(=O)N[C@H](C(=O)N1CC[C@H](C)[C@H]1c1nc2cc(-c3ccc(-c4ccc5[nH]c([C@@H]6[C@@H](C)CCN6C(=O)[C@@H](NC(=O)OC)C(C)C)nc5c4)cc3)ccc2[nH]1)C(C)C [Compound 267] | ≤ 5 nM
COC(=O)N[C@H](C(=O)N1C[C@@H](C)C[C@H]1c1nc2cc(-c3ccc(-c4ccc5[nH]c([C@@H]6C[C@H](C)CN6C(=O)[C@@H](NC(=O)OC)C(C)C)nc5c4)c(C(=O)OC)c3)ccc2[nH]1)C(C)C [Compound 268] | ≤ 5 nM
COC(=O)N[C@H](C(=O)N1C(C)CC[C@H]1c1nc2cc(-c3ccc(-c4ccc5[nH]c([C@@H]6CCC(C)N6C(=O)[C@@H](NC(=O)OC)C(C)C)nc5c4)cc3)ccc2[nH]1)C(C)C (stereo partly drawn) [Compound 269] | ≤ 5 nM
COC(=O)N[C@H](C(=O)N1C[C@@H](C)C[C@H]1c1nc2cc(-c3ccc(-c4ccc5nc([C@@H]6C[C@H](C)CN6C(=O)[C@@H](NC(=O)OC)C(C)C)[nH]c5c4)cc3C(=O)O)ccc2[nH]1)C(C)C [Compound 270] | 5 to 5000 nM
COC(=O)N[C@H](C(=O)N1C[C@@H](C)C[C@H]1c1nc2cc(-c3ccc(-c4ccc5nc([C@@H]6CCCN6C(=O)[C@@H](NC(=O)OC)C(C)C)n(C)c5c4)cc3)ccc2[nH]1)C(C)C [Compound 271] | ≤ 5 nM
COC(=O)N[C@H](C(=O)N1CCC[C@H]1c1nc2cc(-c3ccc(-c4ccc5[nH]c([C@@H]6C[C@H](C)CN6C(=O)[C@@H](NC(=O)OC)C(C)C)nc5c4)cc3)ccc2[nH]1)C(C)C [Compound 272] | ≤ 5 nM
CC(C)(C)OC(=O)N1CCC[C@H]1c1nc2cc(N3CCCN(c4ccc5nc([C@@H]6CCCN6C(=O)OC(C)(C)C)[nH]c5c4)CC3)ccc2[nH]1 [Compound 273] | > 5000 nM
COC(=O)N(C)[C@H](C(=O)N1C[C@@H](C)C[C@H]1c1nc2ccc(C#CC#Cc3ccc4nc([C@@H]5C[C@H](C)CN5C(=O)[C@H](C(C)C)N(C)C(=O)OC)[nH]c4c3)cc2[nH]1)C(C)C [Compound 274] | ≤ 5 nM
C[C@H]1CN(c2ccc3nc([C@@H]4CCCN4C(=O)OC(C)(C)C)[nH]c3c2)CCN1c1ccc2nc([C@@H]3CCCN3C(=O)OC(C)(C)C)[nH]c2c1 [Compound 275] | 5 to 5000 nM
COC(=O)N[C@H](C(=O)N1C[C@@H](C)C[C@H]1c1nc2cc(-c3cc(C)c(-c4ccc5[nH]c([C@@H]6C[C@H](C)CN6C(=O)[C@H](C(C)C)N(C)C(=O)OC)nc5c4)cc3C)ccc2[nH]1)C(C)C [Compound 276] | ≤ 5 nM
COC(=O)N(C)[C@H](C(=O)N1C[C@@H](C)C[C@H]1c1nc2cc(-c3cc(C)c(-c4ccc5[nH]c([C@@H]6C[C@H](C)CN6C(=O)[C@H](C(C)C)N(C)C(=O)OC)nc5c4)cc3C)ccc2[nH]1)C(C)C [Compound 277] | ≤ 5 nM
COC(=O)N(C)[C@H](C(=O)N1C[C@@H](C)C[C@H]1c1nc2cc(-c3ccc(-c4ccc5[nH]c([C@@H]6C[C@H](C)CN6C(=O)[C@H](C(C)C)N(C)C(=O)OC)nc5c4)c(F)c3)ccc2[nH]1)C(C)C [Compound 278] | ≤ 5 nM
COC(=O)N(C(C)C)[C@H](C(=O)N1C[C@@H](C)C[C@H]1c1nc2cc(-c3ccc(-c4ccc5nc([C@@H]6C[C@H](C)CN6C(=O)[C@H](C(C)C)N(C(=O)OC)C(C)C)[nH]c5c4)cc3)ccc2[nH]1)C(C)C [Compound 279] | ≤ 5 nM
COC(=O)N[C@H](C(=O)N1C[C@@H](C)C[C@H]1c1nc2cc(-c3cc(F)c(-c4ccc5[nH]c([C@@H]6C[C@H](C)CN6C(=O)[C@@H](NC(=O)OC)C(C)C)nc5c4)cc3F)ccc2[nH]1)C(C)C [Compound 280] | ≤ 5 nM
COC(=O)N[C@H](C(=O)N1C[C@@H](C)C[C@H]1c1nc2cc(-c3cc(F)c(-c4ccc5[nH]c([C@@H]6C[C@H](C)CN6C(=O)[C@H](C(C)C)N(C)C(=O)OC)nc5c4)cc3F)ccc2[nH]1)C(C)C [Compound 281] | ≤ 5 nM
COC(=O)N(C)[C@H](C(=O)N1C[C@@H](C)C[C@H]1c1nc2cc(-c3cc(F)c(-c4ccc5[nH]c([C@@H]6C[C@H](C)CN6C(=O)[C@H](C(C)C)N(C)C(=O)OC)nc5c4)cc3F)ccc2[nH]1)C(C)C [Compound 282] | ≤ 5 nM
C[C@@H]1CN(c2ccc3nc([C@@H]4CCCN4C(=O)OC(C)(C)C)[nH]c3c2)CCN1c1ccc2nc([C@@H]3CCCN3C(=O)OC(C)(C)C)[nH]c2c1 [Compound 283] | > 5000 nM
COC(=O)N[C@H](C(=O)N1C[C@@H](C)C[C@H]1c1nc2cc(-c3ccc(-c4ccc5nc([C@@H]6C[C@H](C)CN6C(=O)[C@H](C(C)C)N(C(=O)OC)C(C)C)[nH]c5c4)cc3)ccc2[nH]1)C(C)C [Compound 284] | ≤ 5 nM
COC(=O)N[C@H](C(=O)N1C[C@@H](C)C[C@H]1c1nc2cc(-c3ccc(-c4ccc5[nH]c([C@@H]6C[C@H](C)CN6C(=O)[C@H](C(C)C)N(C)C(=O)OC)nc5c4)cc3F)ccc2[nH]1)C(C)C [Compound 285] | ≤ 5 nM

Structure (SMILES) | EC50
COC(=O)N[C@H](C(=O)N1C[C@@H](C)C[C@H]1c1nc2cc(-c3ccc(-c4ccc5[nH]c([C@@H]6C[C@H](C)CN6C(=O)[C@H](C(C)C)N(C)C(=O)OC)nc5c4)c(F)c3)ccc2[nH]1)C(C)C [Compound 286] | ≤ 5 nM
COC(=O)N1CCC[C@H]1C(=O)N1C[C@@H](C)C[C@H]1c1nc2cc(-c3ccc(-c4ccc5[nH]c([C@@H]6C[C@H](C)CN6C(=O)[C@@H]6CCCN6C(=O)OC)nc5c4)cc3)ccc2[nH]1 [Compound 287] | ≤ 5 nM
COC(=O)N[C@H](C(=O)N1C[C@@H](C)C[C@H]1c1nc2cc(-c3ccc(-c4ccc5[nH]c([C@@H]6C[C@H](C)CN6C(=O)[C@@H]6CCCN6C(=O)OC)nc5c4)cc3)ccc2[nH]1)C(C)C [Compound 288] | ≤ 5 nM
COC(=O)N(C)[C@H](C(=O)N1C[C@@H](C)C[C@H]1c1nc2cc(-c3ccc(-c4ccc5[nH]c([C@@H]6C[C@H](C)CN6C(=O)[C@@H](Nc6ncccn6)C(C)C)nc5c4)cc3)ccc2[nH]1)C(C)C [Compound 289] | ≤ 5 nM
COC(=O)N(C)[C@H](C(=O)N1C[C@@H](C)C[C@H]1c1nc2cc(-c3csc4c(-c5ccc6[nH]c([C@@H]7C[C@H](C)CN7C(=O)[C@H](C(C)C)N(C)C(=O)OC)nc6c5)csc34)ccc2[nH]1)C(C)C [Compound 290] | ≤ 5 nM
C[C@H]1C[C@@H](c2nc3ccc(-c4ccc(-c5ccc6nc([C@@H]7C[C@H](C)CN7C(=O)OC(C)(C)C)n(C)c6c5)cc4)cc3n2C)N(C(=O)OC(C)(C)C)C1 [Compound 291] | 5 to 5000 nM
C[C@H]1C[C@@H](c2nc3ccc(-c4ccc(-c5ccc6nc([C@@H]7C[C@H](C)CN7C(=O)OC(C)(C)C)n(C)c6c5)cc4)cc3[nH]2)N(C(=O)OC(C)(C)C)C1 [Compound 292] | 5 to 5000 nM
COC(=O)N[C@H](C(=O)N1C[C@@H](C)C[C@H]1c1nc2ccc(-c3ccc(-c4ccc5nc([C@@H]6C[C@H](C)CN6C(=O)[C@@H](NC(=O)OC)C(C)C)n(C)c5c4)cc3)cc2n1C)C(C)C [Compound 293] | ≤ 5 nM
COC(=O)N[C@H](C(=O)N1C[C@@H](C)C[C@H]1c1nc2ccc(-c3ccc(-c4ccc5nc([C@@H]6C[C@H](C)CN6C(=O)[C@@H](NC(=O)OC)C(C)C)n(C)c5c4)cc3)cc2[nH]1)C(C)C [Compound 294] | ≤ 5 nM
COC(=O)N(C)[C@H](C(=O)N1C[C@@H](C)C[C@H]1c1nc2ccc(-c3ccc(-c4ccc5nc([C@@H]6C[C@H](C)CN6C(=O)[C@H](C(C)C)N(C)C(=O)OC)n(C)c5c4)cc3)cc2n1C)C(C)C [Compound 295] | ≤ 5 nM
COC(=O)N(C)[C@H](C(=O)N1C[C@@H](C)C[C@H]1c1nc2ccc(-c3ccc(-c4ccc5nc([C@@H]6C[C@H](C)CN6C(=O)[C@H](C(C)C)N(C)C(=O)OC)n(C)c5c4)cc3)cc2[nH]1)C(C)C [Compound 296] | ≤ 5 nM
CCN(C(=O)OC)[C@H](C(=O)N1C[C@@H](C)C[C@H]1c1nc2ccc(-c3ccc(-c4ccc5[nH]c([C@@H]6C[C@H](C)CN6C(=O)[C@@H](NC(=O)OC)C(C)C)nc5c4)cc3)cc2[nH]1)C(C)C [Compound 297] | ≤ 5 nM
COC(=O)N[C@H](C(=O)N1CC(C)(C)C[C@H]1c1nc2cc(-c3ccc(-c4ccc5[nH]c([C@@H]6CC(C)(C)CN6C(=O)[C@@H](NC(=O)OC)C(C)C)nc5c4)cc3)ccc2[nH]1)C(C)C [Compound 298] | ≤ 5 nM
COC(=O)N(C)[C@H](C(=O)N1C[C@@H](C)C[C@H]1c1nc2cc(-c3ccc(-c4ccc5[nH]c([C@@H]6C[C@H](C)CN6C(=O)[C@H](C(C)C)N(C)C(=O)OC)nc5c4)c4nsnc34)ccc2[nH]1)C(C)C [Compound 299] | ≤ 5 nM
COC(=O)N[C@H](C(=O)N1C(C)CC[C@H]1c1nc2cc(-c3ccc(-c4ccc5[nH]c([C@@H]6CCC(C)N6C(=O)[C@@H](NC(=O)OC)C(C)C)nc5c4)c(C)c3)ccc2[nH]1)C(C)C (stereo partly drawn) [Compound 300] | ≤ 5 nM
COC(=O)N[C@H](C(=O)N1C(C)CC[C@H]1c1nc2cc(-c3ccc(-c4ccc5[nH]c([C@@H]6CCC(C)N6C(=O)[C@H](C(C)C)N(C)C(=O)OC)nc5c4)cc3)ccc2[nH]1)C(C)C (stereo partly drawn) [Compound 301] | ≤ 5 nM
CC[C@H]1C[C@@H](c2nc3cc(-c4ccc(-c5ccc6[nH]c([C@@H]7C[C@H](CC)CN7C(=O)[C@@H](NC(C)OC)C(C)C)nc6c5)cc4)ccc3[nH]2)N(C(=O)[C@@H](NC(=O)OC)C(C)C)C1 (stereo partly drawn) [Compound 302] | ≤ 5 nM
COC(=O)N[C@H](C(=O)N1C[C@@H](C)C[C@H]1c1nc2cc(-c3ccc(-c4ccc5[nH]c([C@@H]6C[C@H](C)CN6C(=O)[C@@H](NC(=O)OC)C(C)C)nc5c4)c4nsnc34)ccc2[nH]1)C(C)C [Compound 304] | ≤ 5 nM
COC(=O)N[C@H](C(=O)N1C[C@@H](C)C[C@H]1c1nc2cc(-c3ccc(-c4ccc5[nH]c([C@@H]6C[C@H](C)CN6C(=O)[C@H](C(C)C)N6CCOC6=O)nc5c4)cc3)ccc2[nH]1)C(C)C [Compound 305] | ≤ 5 nM
